Source: US20230065953A1, “NOVEL HETEROARYL-TRIAZOLE COMPOUNDS AS PESTICIDES” (Bayer Aktiengesellschaft, priority 2019, published 2023)

Legend:
[1] = tested on: fall armyworm larvae (Spodoptera frugiperda); assay: Spodoptera frugiperda spray test (maize leaf sections); format: in vivo; details: 168 h
Experimental: Spodoptera frugiperda—Spray Test • Solvent: 78.0 parts by weight acetone • 1.5 parts by weight dimethylformamide • Emulsifier: alkylarylpolyglycol ether
To produce a suitable preparation of active compound, 1 part by weight of active compound is mixed with the stated amount of solvents and is diluted with water, containing an emulsifier concentration of 1000 ppm, to the desired concentration. Further test concentrations are prepared by dilution with emulsifier containing water.
Maize (Zea mays) leaf sections are sprayed with a preparation of the active ingredient of the desired concentration. Once dry, the leaf sections are infested with fall armyworm larvae (Spodoptera frugiperda).
After 7 days mortality in % is determined. 100% means all caterpillars have been killed and 0% means none of the caterpillars have been killed.

[2] = tested on: larvae of the banded cucumber beetle (Diabrotica balteata); assay: Diabrotica balteata spray test; format: in vivo; details: 168 h, 100 g/ha (=32 μg/well), wheat seeds, after 7 days, read-out: efficacy (seedling growth)
Experimental: Diabrotica Balteata—Spray Test
• Solvent: 78.0 parts by weight of acetone • 1.5 parts by weight of dimethylformamide • Emulsifier: alkylarylpolyglycol ether
Further test concentrations are prepared by dilution with emulsifier containing water.
Soaked wheat seeds (Triticum aestivum) are placed in a multiple well plate filled with agar and some water and are incubated for 1 day to germinate (5 seeds per well). The germinated wheat seeds are sprayed with a test solution containing the desired concentration of the active ingredient. Afterwards each unit is infected with 10-20 larvae of the banded cucumber beetle (Diabrotica balteata).
After 7 days efficacy in % is determined.

Row | SMILES | mortality at 100 g/ha [1] [%] | pest or weed control at 32 µg/disc, 100 g/ha [2] [%]
1 | C[C@H](NC(=O)c1cc(Cl)cc(S(=O)(=O)c2ccc(Cl)cc2)c1)c1ncnn1-c1ncc(C(=O)N(C)C2CC2)s1 [I-149] | 100 | 100
2 | C[C@H](NC(=O)c1cc(Cl)cc(C#N)c1)c1ncnn1-c1ncc(C#N)s1 [I-101] | 100 | 100
3 | C[C@H](NC(=O)c1cc(F)cc(C(F)F)c1)c1ncnn1-c1ncc(C#N)s1 [I-49] | 100 | 100
4 | C[C@H](NC(=O)c1cc(Cl)cc(S(=O)(=O)C(F)(F)F)c1)c1ncnn1-c1ncc(C(=O)N(C)C2CC2)s1 [I-153] | 100 | 100
5 | Cc1nc([C@H](C)NC(=O)c2cc(Br)cc(OCC(F)(F)F)c2)n(-c2ncc(C#N)s2)n1 [I-92] | 100 | 100
6 | Cc1nc([C@H](C)NC(=O)c2cc(Cl)cc(S(=O)(=O)C3CC3)c2)n(-c2ncc(C#N)s2)n1 [I-163] | 100 | 100
7 | C[C@H](NC(=O)c1cc(Br)cc(OC(F)(F)F)c1)c1ncnn1-c1ncc(C(=O)N(C)C2CC2)s1 [I-145] | 100 | 100
8 | C[C@H](NC(=O)c1cc(Br)cc(C#N)c1)c1ncnn1-c1ncc(C#N)s1 [I-58] | – | 100
9 | CC(NC(=O)c1cc(Br)cc(OCC(F)(F)F)c1)c1ncnn1-c1ncc(C#N)s1 (centres unmarked) [I-88] | 100 | 100
10 | C[C@H](NC(=O)c1cc(Cl)cc(S(=O)(=O)C(F)F)c1)c1ncnn1-c1ncc(C(=O)N(C)C2CC2)s1 [I-146] | 100 | 100
11 | C[C@H](NC(=O)c1cc(OC(F)F)cc(S(C)(=O)=O)c1)c1nc(C2CC2)nn1-c1ncc(C#N)s1 [I-132] | 100 | 100
12 | C[C@H](NC(=O)c1cc(OC(F)(F)F)cc(S(C)(=O)=O)c1)c1nc(C2CC2)nn1-c1ncc(C#N)s1 [I-48] | 100 | 100
13 | C[C@H](NC(=O)c1cc(F)cc(C#N)c1)c1ncnn1-c1ncc(C#N)s1 [I-41] | 100 | 100
14 | C[C@H](NC(=O)c1cc(Cl)cc(S(=O)(=O)c2ccc(Cl)cc2)c1)c1ncnn1-c1ncc(C(=O)N(C)C)s1 [I-141] | 100 | –
15 | C[C@H](NC(=O)c1cc(Br)cc(C2(F)CC2)c1)c1ncnn1-c1ncc(C#N)s1 [I-43] | 100 | 100
16 | CCS(=O)(=O)c1cc(OC(F)(F)F)cc(C(=O)N[C@@H](C)c2ncnn2-c2ncc(C#N)s2)c1 [I-62] | 100 | 100
17 | CNC(=O)c1cnc(-n2ncnc2[C@H](C)NC(=O)c2cc(Cl)cc(S(=O)(=O)c3ccc(Cl)cc3)c2)s1 [I-140] | 100 | 100
18 | C[C@H](NC(=O)c1cc(Cl)nc(OC(F)(F)F)c1)c1ncnn1-c1ncc(C#N)s1 [I-139] | 100 | 100
19 | C[C@H](NC(=O)c1cc(F)cc(OC(F)F)c1)c1ncnn1-c1ncc(C#N)s1 [I-53] | 100 | 100
20 | C[C@H](NC(=O)c1cc(OC(F)(F)F)cc(C2CC2)c1)c1nc(C2CC2)nn1-c1ncc(C(=O)N(C)C)s1 [I-157, 2-(3-cyclopropyl-5-{(1S)-1-[3-cyclopropyl-5-(trifluoromethoxy)benzamido]ethyl}-1H-1,2,4-triazol-1-yl)-N,N-dimethyl-1,3-thiazole-5-carboxamide] | 100 | 100

Row | SMILES | mortality at 100 g/ha [1] [%] | pest or weed control at 32 µg/disc, 100 g/ha [2] [%]
21 | C[C@H](NC(=O)c1cc(OC(F)F)cc(S(=O)(=O)C2CC2)c1)c1nc(C2CC2)nn1-c1ncc(C#N)s1 [I-133] | 100 | 100
22 | COc1nc(C(C)NC(=O)c2cc(OC(F)(F)F)cc(S(=O)(=O)C3CC3)c2)n(-c2ncc(C#N)s2)n1 (centres unmarked) [I-200, N-{1-[1-(5-cyano-1,3-thiazol-2-yl)-3-methoxy-1H-1,2,4-triazol-5-yl]ethyl}-3-(cyclopropylsulfonyl)-5-(trifluoromethoxy)benzamide] | – | 100
23 | C[C@H](NC(=O)c1cc(C(F)F)cc(C(F)F)c1)c1ncnn1-c1ncc(C(=O)N(C)C2CC2)s1 [I-150] | 100 | 100
24 | C[C@H](NC(=O)c1cc(C(F)(F)F)cc(C(F)(F)F)c1)c1nc(C2CC2)nn1-c1ncc(C(=O)N(C)C)s1 [I-156] | 100 | 100
25 | CC(C)S(=O)(=O)c1cc(OC(F)(F)F)cc(C(=O)N[C@@H](C)c2ncnn2-c2ncc(C#N)s2)c1 [I-63] | – | 100
26 | C[C@H](NC(=O)c1cc(Cl)cc(S(=O)(=O)C(F)(F)F)c1)c1ncnn1-c1ncc(C(=O)N(C)C)s1 [I-116] | 100 | 100
27 | Cc1nc([C@H](C)NC(=O)c2cc(Cl)cc(C(F)(F)F)c2)n(-c2ncc(C(=O)N(C)C)s2)n1 [I-22] | 100 | 100
28 | C[C@H](NC(=O)c1cc(Br)cc(OC(F)(F)F)c1)c1ncnn1-c1ncc(C#N)s1 [I-57] | 100 | 80
29 | C[C@H](NC(=O)c1cc(Br)cc(C2CC2(F)F)c1)c1ncnn1-c1ncc(C#N)s1 (some centres unmarked) [I-45] | 100 | 100
30 | C[C@H](NC(=O)c1cc(Br)cc(S(=O)(=O)C(F)(F)F)c1)c1ncnn1-c1ncc(C#N)s1 [I-55] | 100 | 100
31 | Cc1nc([C@H](C)NC(=O)c2cc(Cl)cc(C(F)(F)F)c2)n(-c2ncc(C(=O)NC(C)C)s2)n1 [I-68] | 100 | 100
32 | Cc1nc([C@H](C)NC(=O)c2cc(S(=O)(=O)C(F)(F)F)cc(S(=O)(=O)C(F)(F)F)c2)n(-c2ncc(C#N)s2)n1 [I-162] | 100 | 100
33 | C[C@H](NC(=O)c1cc(C#N)cc(OC(F)(F)F)c1)c1ncnn1-c1ncc(C#N)s1 [I-135] | 100 | 100
34 | C[C@H](NC(=O)c1cc(OC(F)(F)F)cc(OC(F)(F)F)c1)c1ncnn1-c1ncc(C#N)s1 [I-144] | 100 | 100
35 | CNC(=O)c1cnc(-n2ncnc2[C@H](C)NC(=O)c2cc(Cl)cc(C3CC3)c2)s1 [I-122] | 100 | 100
36 | C[C@H](NC(=O)c1cc(OC(F)(F)F)cc(S(C)(=O)=O)c1)c1ncnn1-c1ncc(C(=O)N(C)C2CC2)s1 [I-147] | 100 | 100
37 | Cc1nc([C@H](C)NC(=O)c2cc(Cl)cc(S(=O)(=O)C(F)(F)F)c2)n(-c2ncc(C#N)s2)n1 [I-160] | 100 | 100
38 | Cc1nc([C@H](C)NC(=O)c2cc(OC(F)(F)F)cc(S(C)(=O)=O)c2)n(-c2ncc(C#N)s2)n1 [I-159] | 100 | 100
39 | C[C@H](NC(=O)c1cc(C(F)F)cc(C2CC2)c1)c1ncnn1-c1ncc(C#N)s1 [I-44] | 100 | 100
